Laboratory results from PubChem BioAssay AID330 (DTP/NCI, 2004).
Values joined by “and” are separate entries in the source; they are usually repeats but may differ in a detail not shown here. Equal entries are not always repeated. Inconclusive results and toxic doses are left out.

Test system: P388 leukemia ip, CD2F1 mice, survival T/C
Assay: NCI In Vivo Anticancer Drug Screen. Data for tumor model P388 Leukemia (intraperitoneal) in CD2F1 (CDF1) mice
Conditions: endpoint: median survival time, higher = longer survival
How it was run: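 Mice carrying the transplanted tumor received test compound or vehicle. Survival was recorded in each group, and the value is the treated-group measurement divided by that of the vehicle-treated control group.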

[1] = dose: 50.0 mg/kg/injection, schedule: Q01DX005 (ip), vehicle: Klucel (hydroxypropylcellulose) (HPC)
[2] = dose: 100.0 mg/kg/injection, schedule: Q01DX005 (ip), vehicle: Klucel (hydroxypropylcellulose) (HPC)
[3] = dose: 200.0 mg/kg/injection, schedule: Q01DX005 (ip), vehicle: Klucel (hydroxypropylcellulose) (HPC)
[4] = dose: 60.0 mg/kg/injection, schedule: Q01DX005 (ip), vehicle: saline with Tween-80
[5] = dose: 120.0 mg/kg/injection, schedule: Q01DX005 (ip), vehicle: saline with Tween-80
[6] = dose: 240.0 mg/kg/injection, schedule: Q01DX005 (ip), vehicle: saline with Tween-80
[7] = dose: 60.0 mg/kg/injection, schedule: Q01DX005 (ip), vehicle: Klucel (hydroxypropylcellulose) (HPC)
[8] = dose: 120.0 mg/kg/injection, schedule: Q01DX005 (ip), vehicle: Klucel (hydroxypropylcellulose) (HPC)
[9] = dose: 240.0 mg/kg/injection, schedule: Q01DX005 (ip), vehicle: Klucel (hydroxypropylcellulose) (HPC)

With `CCCCCCCCOC(=O)c1[nH]cnc1/N=N\N(C)C` the T/C (dose: 100.0 mg/kg/injection, schedule: Q04DX003 (ip), vehicle: Klucel (hydroxypropylcellulose) (HPC)) was 109 % of control, the T/C (dose: 200.0 mg/kg/injection, schedule: Q04DX003 (ip), vehicle: Klucel (hydroxypropylcellulose) (HPC)) was 113 % of control and the T/C (dose: 400.0 mg/kg/injection, schedule: Q04DX003 (ip), vehicle: Klucel (hydroxypropylcellulose) (HPC)) was 104 % of control.
`O=C1C2CSCN2C(=O)C2CSCN12` (configuration not stated) was tested, and the T/C (dose: 100.0 mg/kg/injection, schedule: Q01DX001 (ip), vehicle: Klucel (hydroxypropylcellulose) (HPC)) was 102 % of control, the T/C (dose: 200.0 mg/kg/injection, schedule: Q01DX001 (ip), vehicle: Klucel (hydroxypropylcellulose) (HPC)) was 99 % of control and the T/C (dose: 400.0 mg/kg/injection, schedule: Q01DX001 (ip), vehicle: Klucel (hydroxypropylcellulose) (HPC)) was 105 % of control.
In the case of `OCCCOCCCOCCCOCCCOCCCOCCCO`, the T/C (dose: 50.0 mg/kg/injection, schedule: Q01DX005 (ip), vehicle: saline with Tween-80) is reported as 100 % of control, the T/C (dose: 100.0 mg/kg/injection, schedule: Q01DX005 (ip), vehicle: saline with Tween-80) is reported as 96 % of control and the T/C (dose: 200.0 mg/kg/injection, schedule: Q01DX005 (ip), vehicle: saline with Tween-80) is reported as 102 % of control.
`Oc1ccc(N=Nc2ccc3c4c(cccc24)-c2ccccc2-3)c2cccnc12` was tested, and the T/C (dose: 50.0 mg/kg/injection, schedule: Q01DX009 (ip), vehicle: Klucel (hydroxypropylcellulose) (HPC)) was 99 % of control, the T/C (dose: 100.0 mg/kg/injection, schedule: Q01DX009 (ip), vehicle: Klucel (hydroxypropylcellulose) (HPC)) was 102 % of control and the T/C (dose: 200.0 mg/kg/injection, schedule: Q01DX009 (ip), vehicle: Klucel (hydroxypropylcellulose) (HPC)) was 114 % of control.
In the case of `O=C1C(Cl)=C(Nc2cccc3ccccc23)C(=O)C(Cl)=C1Nc1cccc2ccccc12`, the T/C [1] is reported as 95 % of control, the T/C [2] is reported as 88 % of control and the T/C [3] is reported as 88 % of control.
With `COc1cccc2c(NCCCCCCNc3c4ccccc4nc4c(OC)cccc34)c3ccccc3nc12` the T/C (dose: 0.62 mg/kg/injection, schedule: Q## X009 (ip), vehicle: lactic acid) was 123 % of control, the T/C (dose: 0.63 mg/kg/injection, schedule: Q01DX009 (ip), vehicle: other) was 102 % of control and the T/C (dose: 1.25 mg/kg/injection, schedule: Q01DX009 (ip), vehicle: other) was 122 % of control. For the same compound, the T/C (dose: 2.5 mg/kg/injection, schedule: Q## X009 (ip), vehicle: lactic acid) was 160 % of control, the T/C (dose: 5.0 mg/kg/injection, schedule: Q## X009 (ip), vehicle: lactic acid) was 161 % of control and the T/C (dose: 10.0 mg/kg/injection, schedule: Q## X009 (ip), vehicle: lactic acid) was 119 % of control.
For `O=c1[nH]c2cc(Cl)ccc2nc1/C=C(\O)c1cccc2ccccc12`, the T/C [4] was 89 % of control, the T/C [5] was 88 % of control and the T/C [6] was 90 % of control.
For `COc1cc(C(C)c2cc3c(cc2OCCO)OCO3)cc(OC)c1OC` (configuration not stated), the T/C (dose: 25.0 mg/kg/injection, schedule: Q01DX005 (ip), vehicle: saline with Tween-80) was 92 % of control and 94 % of control and the T/C (dose: 400.0 mg/kg/injection, schedule: Q01DX005 (ip), vehicle: saline with Tween-80) was 161 % of control and 180 % of control.
For `c1ccc2c(c1)c1c(c3ccccc32)CN2CCCC2C1` (configuration not stated), the T/C [1] was 105 % of control, the T/C [2] was 101 % of control and the T/C [3] was 110 % of control.
`O=C(Nc1cccc2c1C(O)c1ccccc1-2)C(Cl)Cl` (configuration not stated) was tested, and the T/C [4] was 97 % of control, the T/C [5] was 98 % of control and the T/C [6] was 104 % of control.
`O=C(Nc1ccc(Cl)cc1)Nc1nnc(-c2cccc(-c3nnc(NC(=O)Nc4ccc(Cl)cc4)o3)c2)o1` was tested, and the T/C [7] was 94 % of control, the T/C [8] was 96 % of control and the T/C [9] was 97 % of control.
In the case of `COc1ccc(C2(Cc3ccccc3C#N)OCCO2)cc1OC`, the T/C (dose: 100.0 mg/kg/injection, schedule: Q04DX002 (ip), vehicle: Klucel (hydroxypropylcellulose) (HPC)) is reported as 95 % of control, the T/C (dose: 200.0 mg/kg/injection, schedule: Q04DX002 (ip), vehicle: Klucel (hydroxypropylcellulose) (HPC)) is reported as 101 % of control and the T/C (dose: 400.0 mg/kg/injection, schedule: Q04DX002 (ip), vehicle: Klucel (hydroxypropylcellulose) (HPC)) is reported as 99 % of control.
With `Cc1cc(Oc2cnc(=O)[nH]c2)cs1` the T/C [7] was 100 % of control, the T/C [8] was 94 % of control and the T/C [9] was 94 % of control.
For `O=C(O)C1C(C(=O)O)C2(Cl)C(Cl)=C(Cl)C1(Cl)C2(Cl)Cl.[Co]` (configuration not stated), the T/C (dose: 50.0 mg/kg/injection, schedule: Q01DX001 (ip), vehicle: saline) was 109 % of control, the T/C (dose: 100.0 mg/kg/injection, schedule: Q01DX001 (ip), vehicle: saline) was 109 % of control and the T/C (dose: 200.0 mg/kg/injection, schedule: Q01DX001 (ip), vehicle: saline) was 109 % of control.
In the case of `Cc1cnc(NS(=O)(=O)c2ccc(N)cc2)nc1-c1ccccc1O`, the T/C [4] is reported as 100 % of control, the T/C [5] is reported as 93 % of control and the T/C [6] is reported as 86 % of control.
